Assay results: ChEMBL document CHEMBL1201862, “PubChem BioAssay data set” (2004)
Active and inactive are the calls of the source.

Columns and labels:
[1] = microbe, parasite or virus in culture; assay type: functional; conditions: Mycobacterium tuberculosis
[2] = growth suppression of PTEN-null colon cells, dose response, cell-based, HCT116 PTEN knockout (AID 1047); assay type: functional;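 further: HCT116 colon tumor cells with PTEN knocked out; cells exposed to compound for 60 hours before readout; potency for loss of cell viability measured by luminescence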
[3] = growth suppression of beta-catenin-knockout colon cells, dose response, cell-based, HCT116, human colon tumor (AID 1045); assay type: functional;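 further: HCT116 colon tumor cells with beta catenin knocked out; cells exposed to compound for 60 hours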
Fatty acid synthase [4] = target: T1, Fatty acid synthase (Homo sapiens, UniProt P49327); assay: FAS thioesterase domain inhibitors, dose response, biochemical, kinetic fluorescence intensity (AID 624326); assay type: functional;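 further: rate of fluorescence rise from hydrolysis of a fluorogenic O-methyl fluorescein ester substrate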
Fatty acid synthase [5] = target: T1, Fatty acid synthase; assay: FAS thioesterase domain inhibitors, dose response, biochemical, endpoint fluorescence intensity, uHTS hits (AID 624327); assay type: functional;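 further: fluorescence from hydrolysis of an O-methyl fluorescein acyl ester substrate by the enzyme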
[6] = target: Luciferin 4-monooxygenase (Photinus pyralis, UniProt P08659); assay: firefly luciferase enzyme inhibitors, dose response, biochemical, luminescence (AID 1891)
[7] = target: T2, Replicative DNA helicase DnaB (Mycobacterium tuberculosis, UniProt P9WMR3); assay: DnaB intein splicing inhibitors, dose response, biochemical, cell-free fluorescence (AID 449749); assay type: functional
T2 sequence (P9WMR3 whole entry): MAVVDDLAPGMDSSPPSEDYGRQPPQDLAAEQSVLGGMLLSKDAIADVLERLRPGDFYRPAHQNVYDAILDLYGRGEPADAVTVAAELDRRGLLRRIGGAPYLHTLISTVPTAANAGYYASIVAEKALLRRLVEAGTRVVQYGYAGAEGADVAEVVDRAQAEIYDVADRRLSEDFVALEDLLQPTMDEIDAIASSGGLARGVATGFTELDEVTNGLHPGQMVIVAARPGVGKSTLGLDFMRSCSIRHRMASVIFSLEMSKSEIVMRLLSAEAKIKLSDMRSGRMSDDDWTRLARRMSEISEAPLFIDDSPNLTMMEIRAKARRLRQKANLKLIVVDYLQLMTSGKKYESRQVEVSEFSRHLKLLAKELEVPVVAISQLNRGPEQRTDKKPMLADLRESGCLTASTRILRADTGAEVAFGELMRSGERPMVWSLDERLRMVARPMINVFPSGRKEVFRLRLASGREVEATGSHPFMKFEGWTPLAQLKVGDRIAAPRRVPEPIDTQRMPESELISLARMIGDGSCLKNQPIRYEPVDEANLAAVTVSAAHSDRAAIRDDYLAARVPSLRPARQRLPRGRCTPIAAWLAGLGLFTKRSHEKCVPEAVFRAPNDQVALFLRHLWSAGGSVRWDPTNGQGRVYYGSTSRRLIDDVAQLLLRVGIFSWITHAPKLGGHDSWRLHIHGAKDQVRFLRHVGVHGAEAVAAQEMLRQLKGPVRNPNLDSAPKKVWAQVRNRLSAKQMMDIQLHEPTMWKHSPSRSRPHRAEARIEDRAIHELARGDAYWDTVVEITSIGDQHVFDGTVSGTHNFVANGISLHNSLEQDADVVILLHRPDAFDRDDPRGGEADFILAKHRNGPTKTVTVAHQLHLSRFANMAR

[8] = THP-1 cell cytotoxicity, dose response, cytotoxicity control for non-replicating M. tuberculosis project (AID 489025); assay type: functional
[9] = Luminescence Cell-Based Dose Response HTS to Identify Inhibitors of 5'UTR Stem-Loop Driven Prion Protein mRNA Translation in H4 Neuroglioblastoma Cells. [Related pubchem assays: 1827 (Project Summary), 1813 (Primary HTS)]; assay type: functional
Protein RecA = target: T3, Protein RecA (Mycobacterium tuberculosis, UniProt P9WHJ3); assay: Fluorescence Cell-Free Homogeneous Dose Retest to Identify Inhibitors of RecA-Intein Splicing Activity. [Related pubchem assays (depositor defined):AID2097, AID2223, AID489010, AID492950]; assay type: functional
T3 sequence (P9WHJ3 whole entry): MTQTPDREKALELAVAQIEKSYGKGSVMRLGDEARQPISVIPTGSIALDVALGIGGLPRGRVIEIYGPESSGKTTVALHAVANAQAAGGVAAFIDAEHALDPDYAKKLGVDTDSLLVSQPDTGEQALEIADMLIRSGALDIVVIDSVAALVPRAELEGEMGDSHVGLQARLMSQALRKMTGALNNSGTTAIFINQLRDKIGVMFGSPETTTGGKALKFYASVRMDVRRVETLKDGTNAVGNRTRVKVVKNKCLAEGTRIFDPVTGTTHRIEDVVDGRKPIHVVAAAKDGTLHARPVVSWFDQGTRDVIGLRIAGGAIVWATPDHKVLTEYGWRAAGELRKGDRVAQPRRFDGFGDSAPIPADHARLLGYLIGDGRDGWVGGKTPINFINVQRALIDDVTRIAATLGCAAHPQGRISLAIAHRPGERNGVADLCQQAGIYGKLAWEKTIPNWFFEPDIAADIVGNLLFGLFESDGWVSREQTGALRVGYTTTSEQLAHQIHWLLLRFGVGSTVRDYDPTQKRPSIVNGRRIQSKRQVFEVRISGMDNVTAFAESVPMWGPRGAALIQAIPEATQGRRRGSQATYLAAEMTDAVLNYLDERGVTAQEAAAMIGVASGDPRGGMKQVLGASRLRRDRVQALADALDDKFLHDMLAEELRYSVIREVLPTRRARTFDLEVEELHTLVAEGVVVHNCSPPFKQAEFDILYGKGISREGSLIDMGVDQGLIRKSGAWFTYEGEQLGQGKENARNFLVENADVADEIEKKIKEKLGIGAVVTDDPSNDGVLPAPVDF

[10] = inhibitors of firefly luciferase expression or activity, dose response, H4 neuroglioma cells, luminescence (AID 1990); assay type: functional, cell-based
[11] = inhibitors of SNCA 5'UTR-driven reporter translation, confirmation, H4 neuroglioma cells, luminescence (AID 1988); assay type: functional, cell-based
BJ [12] = assay: cytotoxicity toward BJ-TERT fibroblasts, dose response, cell-based, RAS-independent, luminescence (AID 1933); assay type: functional; conditions: Homo sapiens
cells = assay type: functional
BJ [13] = assay: cytotoxicity toward BJ-TERT-LT-ST fibroblasts, dose response, cell-based, RAS-independent, luminescence (AID 1935); assay type: functional; conditions: Homo sapiens;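 further: BJ fibroblasts immortalized with TERT plus LT and ST oncogenes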
[14] = cytotoxicity toward DRD oncogenic fibroblasts, dose response, cell-based, non-viral oncogenic, luminescence (AID 1934); assay type: functional; conditions: Homo sapiens
BJ [15] = assay: cells; assay type: functional, cell-based; conditions: Homo sapiens
[16] = Luminescence Cell-Based Dose Confirmation HTS to Identify Inhibitors of Platelet Dense Granule Release. [Related pubchem assays: 1663 (Primary HTS), 1678 (Summary of Project)]; assay type: functional
H9c2 = assay: cells; assay type: functional, cell-based; conditions: Rattus norvegicus, H9c2, Myocardium;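 further: confirmatory concentration-response retest of ultra-high-throughput screening hits for modulation of myocardial damage; cell death induced by hydrogen peroxide oxidative stress; compound pretreatment for 60 min then peroxide exposure for 2 h; potency is for protecting the cells against peroxide damage rather than for killing them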
Protein skinhead-1 = target: T4, Protein skinhead-1 (Caenorhabditis elegans, UniProt P34707); assay type: functional
T4 sequence (P34707 whole entry): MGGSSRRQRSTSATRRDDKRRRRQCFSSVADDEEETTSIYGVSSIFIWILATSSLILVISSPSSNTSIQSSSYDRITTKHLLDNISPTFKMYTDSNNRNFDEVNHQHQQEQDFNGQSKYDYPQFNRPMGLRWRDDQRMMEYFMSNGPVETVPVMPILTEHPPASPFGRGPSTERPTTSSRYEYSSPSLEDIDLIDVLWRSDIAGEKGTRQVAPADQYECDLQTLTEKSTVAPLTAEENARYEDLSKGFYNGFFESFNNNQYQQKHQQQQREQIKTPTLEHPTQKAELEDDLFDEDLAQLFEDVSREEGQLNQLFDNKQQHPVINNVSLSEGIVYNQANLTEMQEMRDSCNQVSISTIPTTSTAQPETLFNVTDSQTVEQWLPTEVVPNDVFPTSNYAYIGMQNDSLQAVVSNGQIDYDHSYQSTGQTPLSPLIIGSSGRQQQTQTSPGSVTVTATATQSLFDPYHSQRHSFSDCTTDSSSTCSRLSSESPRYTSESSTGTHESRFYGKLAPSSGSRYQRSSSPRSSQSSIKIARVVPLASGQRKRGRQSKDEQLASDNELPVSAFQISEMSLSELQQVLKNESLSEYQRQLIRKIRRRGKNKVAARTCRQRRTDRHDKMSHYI

[17] = inhibitors of clade B AD8 Env fusion, dose response, cell-based, cherry-pick (AID 652062); assay type: functional;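 further: luciferase signal from cell-cell fusion driven by HIV-1 clade B AD8 Env; potency is for inhibitors of fusion seen as a drop in luminescence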
[18] = inhibitors of HIV Env-driven cell fusion, dose response, cherry-pick (AID 652057); assay type: functional, cell-based
Cytochrome P450 1A2 = target: T5, Cytochrome P450 1A2 (Homo sapiens, UniProt P05177);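 further: PubChem cytochrome P450 panel assay, CYP1A2 panel member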
T5 sequence (P05177 whole entry): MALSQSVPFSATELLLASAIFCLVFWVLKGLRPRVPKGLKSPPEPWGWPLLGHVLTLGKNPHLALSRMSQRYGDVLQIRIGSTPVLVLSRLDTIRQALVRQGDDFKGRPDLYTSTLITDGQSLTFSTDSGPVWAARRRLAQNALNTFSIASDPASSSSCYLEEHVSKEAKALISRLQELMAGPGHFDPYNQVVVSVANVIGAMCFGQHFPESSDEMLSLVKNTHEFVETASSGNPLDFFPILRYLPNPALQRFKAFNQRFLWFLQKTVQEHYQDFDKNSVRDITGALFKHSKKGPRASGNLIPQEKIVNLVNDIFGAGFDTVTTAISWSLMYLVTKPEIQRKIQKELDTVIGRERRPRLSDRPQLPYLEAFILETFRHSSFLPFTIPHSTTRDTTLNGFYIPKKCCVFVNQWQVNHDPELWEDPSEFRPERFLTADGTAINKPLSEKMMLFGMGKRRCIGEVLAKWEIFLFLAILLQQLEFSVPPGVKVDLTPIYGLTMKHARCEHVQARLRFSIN

Cytochrome P450 3A4 = Cytochrome P450 3A4 (Homo sapiens, UniProt P08684);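 further: CYP3A4 tested as one member of a cytochrome P450 panel screen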
Sequence of Cytochrome P450 3A4 (P08684 whole entry): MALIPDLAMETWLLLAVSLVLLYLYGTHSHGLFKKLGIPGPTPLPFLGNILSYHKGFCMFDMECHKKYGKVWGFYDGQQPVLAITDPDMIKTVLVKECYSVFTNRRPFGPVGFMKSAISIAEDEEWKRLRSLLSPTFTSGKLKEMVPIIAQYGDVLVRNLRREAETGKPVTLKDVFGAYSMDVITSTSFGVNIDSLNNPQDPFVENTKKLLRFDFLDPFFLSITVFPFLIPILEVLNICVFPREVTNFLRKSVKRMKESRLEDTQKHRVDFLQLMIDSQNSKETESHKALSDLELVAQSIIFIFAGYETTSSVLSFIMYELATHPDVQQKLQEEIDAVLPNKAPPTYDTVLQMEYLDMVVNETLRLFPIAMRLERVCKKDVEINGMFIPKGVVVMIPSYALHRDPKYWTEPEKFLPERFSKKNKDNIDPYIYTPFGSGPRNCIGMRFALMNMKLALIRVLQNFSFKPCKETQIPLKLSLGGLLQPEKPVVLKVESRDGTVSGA

T1 sequence (P49327 whole entry, the tested form may be a part): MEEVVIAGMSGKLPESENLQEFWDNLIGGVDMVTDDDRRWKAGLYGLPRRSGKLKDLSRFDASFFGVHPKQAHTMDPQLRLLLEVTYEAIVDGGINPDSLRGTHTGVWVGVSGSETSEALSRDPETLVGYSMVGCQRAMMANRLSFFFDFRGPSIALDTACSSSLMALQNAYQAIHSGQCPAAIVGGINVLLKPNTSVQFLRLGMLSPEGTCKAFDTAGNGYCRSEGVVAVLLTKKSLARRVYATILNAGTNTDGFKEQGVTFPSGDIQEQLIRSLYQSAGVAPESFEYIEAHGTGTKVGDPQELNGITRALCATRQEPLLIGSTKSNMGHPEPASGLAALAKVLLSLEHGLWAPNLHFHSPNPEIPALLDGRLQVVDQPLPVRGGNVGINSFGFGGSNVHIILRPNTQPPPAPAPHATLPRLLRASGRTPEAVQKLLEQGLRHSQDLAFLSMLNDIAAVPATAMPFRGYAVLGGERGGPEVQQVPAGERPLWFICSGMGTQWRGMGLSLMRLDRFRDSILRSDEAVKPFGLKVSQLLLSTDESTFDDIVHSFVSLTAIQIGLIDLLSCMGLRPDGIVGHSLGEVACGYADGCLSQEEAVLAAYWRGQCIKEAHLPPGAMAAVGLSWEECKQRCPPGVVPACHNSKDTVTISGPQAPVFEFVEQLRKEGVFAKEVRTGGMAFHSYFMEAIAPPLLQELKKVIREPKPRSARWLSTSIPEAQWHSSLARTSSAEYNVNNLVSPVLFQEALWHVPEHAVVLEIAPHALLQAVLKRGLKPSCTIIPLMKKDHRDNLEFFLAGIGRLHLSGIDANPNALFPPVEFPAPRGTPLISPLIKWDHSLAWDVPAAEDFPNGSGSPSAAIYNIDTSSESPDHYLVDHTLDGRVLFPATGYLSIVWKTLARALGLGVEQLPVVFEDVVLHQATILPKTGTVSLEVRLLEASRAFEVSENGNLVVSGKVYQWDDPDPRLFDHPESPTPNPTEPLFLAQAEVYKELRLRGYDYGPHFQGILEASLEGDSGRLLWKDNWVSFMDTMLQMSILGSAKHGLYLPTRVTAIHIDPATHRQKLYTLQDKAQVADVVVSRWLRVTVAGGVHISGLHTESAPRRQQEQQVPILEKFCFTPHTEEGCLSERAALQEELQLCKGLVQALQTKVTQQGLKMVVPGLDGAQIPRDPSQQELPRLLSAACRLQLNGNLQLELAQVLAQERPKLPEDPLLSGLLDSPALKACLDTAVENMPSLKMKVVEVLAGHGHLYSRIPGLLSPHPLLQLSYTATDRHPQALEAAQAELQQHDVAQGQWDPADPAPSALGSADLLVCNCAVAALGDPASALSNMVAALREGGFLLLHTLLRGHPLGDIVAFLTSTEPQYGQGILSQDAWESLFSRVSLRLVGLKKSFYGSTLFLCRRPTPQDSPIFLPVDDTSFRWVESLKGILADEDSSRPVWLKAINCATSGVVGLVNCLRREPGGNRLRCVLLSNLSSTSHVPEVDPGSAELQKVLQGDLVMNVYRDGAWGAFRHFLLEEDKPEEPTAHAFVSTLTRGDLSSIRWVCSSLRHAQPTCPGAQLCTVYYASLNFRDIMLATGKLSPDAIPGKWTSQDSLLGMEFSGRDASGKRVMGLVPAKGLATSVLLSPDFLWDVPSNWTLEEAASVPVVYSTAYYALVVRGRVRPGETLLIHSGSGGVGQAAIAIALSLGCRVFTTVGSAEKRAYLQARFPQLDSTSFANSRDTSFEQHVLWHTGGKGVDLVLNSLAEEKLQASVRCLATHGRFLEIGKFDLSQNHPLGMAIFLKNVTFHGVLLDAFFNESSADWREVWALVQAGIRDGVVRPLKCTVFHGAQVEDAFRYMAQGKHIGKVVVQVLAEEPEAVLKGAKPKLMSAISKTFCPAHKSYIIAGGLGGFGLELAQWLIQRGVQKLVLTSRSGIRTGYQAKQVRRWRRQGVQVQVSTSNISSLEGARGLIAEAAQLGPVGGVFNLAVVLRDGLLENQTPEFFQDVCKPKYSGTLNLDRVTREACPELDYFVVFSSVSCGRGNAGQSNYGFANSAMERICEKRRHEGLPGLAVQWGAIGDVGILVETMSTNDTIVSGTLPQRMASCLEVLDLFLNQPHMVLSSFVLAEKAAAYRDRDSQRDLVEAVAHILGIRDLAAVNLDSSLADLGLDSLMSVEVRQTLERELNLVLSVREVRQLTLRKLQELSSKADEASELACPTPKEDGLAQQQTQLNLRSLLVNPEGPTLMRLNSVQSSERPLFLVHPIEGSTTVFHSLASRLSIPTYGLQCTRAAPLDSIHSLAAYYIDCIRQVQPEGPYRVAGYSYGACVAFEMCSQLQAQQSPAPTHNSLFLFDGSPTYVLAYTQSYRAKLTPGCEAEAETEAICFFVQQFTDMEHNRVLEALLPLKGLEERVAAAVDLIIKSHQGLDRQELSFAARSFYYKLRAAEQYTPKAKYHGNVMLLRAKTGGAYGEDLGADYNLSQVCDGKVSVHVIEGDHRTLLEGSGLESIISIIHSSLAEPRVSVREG
Sequence of Luciferin 4-monooxygenase (P08659 whole entry): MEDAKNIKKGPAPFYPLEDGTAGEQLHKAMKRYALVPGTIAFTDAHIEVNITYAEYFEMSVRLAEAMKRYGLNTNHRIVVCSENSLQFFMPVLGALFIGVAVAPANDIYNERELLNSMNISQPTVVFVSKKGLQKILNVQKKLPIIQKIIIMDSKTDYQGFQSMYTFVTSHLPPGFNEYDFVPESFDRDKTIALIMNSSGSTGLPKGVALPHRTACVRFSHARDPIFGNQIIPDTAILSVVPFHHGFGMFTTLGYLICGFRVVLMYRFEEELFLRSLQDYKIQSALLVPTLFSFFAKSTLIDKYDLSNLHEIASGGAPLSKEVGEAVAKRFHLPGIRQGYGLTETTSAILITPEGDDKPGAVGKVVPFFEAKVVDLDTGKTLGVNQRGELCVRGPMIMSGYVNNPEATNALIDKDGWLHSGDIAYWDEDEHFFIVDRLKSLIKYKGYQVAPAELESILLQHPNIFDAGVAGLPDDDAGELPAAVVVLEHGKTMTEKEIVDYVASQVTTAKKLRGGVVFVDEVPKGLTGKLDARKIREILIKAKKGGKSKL

Compound: O=[N+]([O-])c1ccc(C2Oc3ccccc3C3CC(c4ccccc4)=NN32)s1 (stereo unspecified)
- CC50 [1]: 31.5 µM (active)

Compound: CCCCCCCCNC(=O)c1cccnc1SCC(=O)Nc1ccc(OC)cc1OC
- EC50 [2]: 12.3 µM (active)
- EC50 [3]: 12.6 µM (active)

Compound: Cc1ccc([N+](=O)[O-])cc1N=C(S)NCCc1ccccc1
- IC50 (Fatty acid synthase [4]): 13.1 µM (active)
- IC50 (Fatty acid synthase [5]): 12.1 µM (active)

Compound: O=C(Nc1ncc([N+](=O)[O-])s1)c1ccc2c(c1)OCO2
- EC50 [6]: 0.324 µM (active)
- AC50 [7]: 21.2 µM (active)
- CC50 [8]: 28.9 µM (active)
- EC50 [9]: 7.3 µM (active)
- EC50 (Protein RecA): 16.5 µM (active)
- EC50 [10]: 4.23 µM (active)
- EC50 [11]: 3.42 µM (active)
- EC50 (BJ [12]): 14.1 µM (active)
- IC50 (cells): 34.4 µM (active)
- EC50 (BJ [13]): > 150 µM (inconclusive)
- EC50 [14]: 10.3 µM (active)
- EC50 (BJ [15]): 13.5 µM (active)
- EC50 [16]: 2.39 µM (active)

Compound: COc1ccc(C2CC(c3cccs3)n3nc(N)nc3N2)cc1 (stereo unspecified)
- IC50 (H9c2): > 79 µM (inactive)

Compound: COC(=O)c1cccc(S(=O)(=O)N(Cc2ccco2)Cc2cc3cc(OC)ccc3nc2O)c1
- IC50 (H9c2): 31.7 µM (inactive)

Compound: CC(C)(C)OC(=O)CNC(=O)c1[nH]cnc1C(=O)NCC(=O)OCc1ccccc1
- IC50 (H9c2): > 79 µM (inactive)

Compound: O=C(Cn1c(=O)c2sccc2n(Cc2ccc([N+](=O)[O-])cc2)c1=O)NCCc1ccccc1
- IC50 (Fatty acid synthase [4]): 4.79 µM (active)
- IC50 (Fatty acid synthase [5]): 5.6 µM (active)

Compound: COc1ccc(NC(=O)N(CCCN(C)C)Cc2cc3cc(OC)ccc3nc2O)cc1
- IC50 (H9c2): > 79 µM (inactive)

Compound: CCN1CCN(c2cc(N3CCc4ccccc4C3)c(F)cc2[N+](=O)[O-])CC1
- EC50 [2]: 12.8 µM (active)
- EC50 [3]: 12 µM (active)

Compound: Cc1c(C(=O)NCCC2=CCCCC2)oc2ccc(S(=O)(=O)N3CCOCC3)cc12
- IC50 (Protein skinhead-1): > 100 µM (inactive)
- EC50 [2]: 19.2 µM (active)
- EC50 [3]: 31.7 µM (active)

Compound: Cc1c(Cl)c([N+](=O)[O-])nn1CCCC(=O)Nc1cccc(Cl)c1
- IC50 (Fatty acid synthase [4]): 16.2 µM (active)
- IC50 (Fatty acid synthase [5]): 17.6 µM (active)

Compound: O=C(CCc1nc(O)c2ccccc2n1)N1CCCc2ccccc21
- IC50 (H9c2): > 79 µM (inactive)

Compound: O=[N+]([O-])c1ccc(S(=O)(=O)NN=Cc2ccc(Cl)c(Cl)c2)cc1
- IC50 (Fatty acid synthase [4]): 2.68 µM (active)
- IC50 (Fatty acid synthase [5]): 1.52 µM (active)

Compound: CC(C)NC(=O)N(C)C[C@H]1Oc2c(NC(=O)Nc3ccc(C(F)(F)F)cc3)cccc2C(=O)N([C@H](C)CO)C[C@@H]1C
- IC50 (Fatty acid synthase [4]): 1.08 µM (active)
- IC50 (Fatty acid synthase [5]): 0.842 µM (active)

Compound: COc1ccc(N2CC(C(=O)NCc3nnc(O)c4ccccc34)CC2=O)cc1 (stereo unspecified)
- IC50 (H9c2): 12.9 µM (active)

Compound: O=C(c1cc(O)nc2ccccc12)N1CCN(S(=O)(=O)c2ccc(Cl)cc2)CC1
- IC50 (H9c2): 14.4 µM (active)

Compound: O=C(Cn1[nH]c(=O)c2ccccc2c1=O)NNC(=O)c1ccccc1
- IC50 (H9c2): 18.6 µM (active)

Compound: Cc1cc(C)c2c(N)c(C(=O)N/N=C/c3cccnc3)sc2n1
- IC50 (H9c2): > 79 µM (inactive)

Compound: C[C@H](CO)N1C[C@H](C)[C@H](CN(C)S(=O)(=O)c2ccccc2)Oc2cc(-c3cccc(F)c3)ccc2S1(=O)=O
- AC50 [17]: 10.7 µM (active)
- AC50 [18]: 11 µM (active)

Compound: O=c1[nH]c2cc([N+](=O)[O-])c([N+](=O)[O-])cc2[nH]c1=O [DNQX]
- IC50 (Fatty acid synthase [4]): 6.88 µM (active)
- IC50 (Fatty acid synthase [5]): 8.63 µM (active)
- AC50 (Cytochrome P450 1A2): 31.6 µM (inconclusive)
- AC50 (Cytochrome P450 3A4): 25.1 µM (inconclusive)
